Numbers after ± are expanded uncertainties.
Key:
[1] = Molar enthalpy of transition or fusion; conditions: Crystal; DSC
[2] = Crystal; DTA

CC(=O)Nc1ccc(Cl)cc1 [N(4-chlorophenyl)ethanamide]
Molar enthalpy of transition or fusion [1]: 6.49 ± 0.234 kcal/mol | Normal melting temperature [2]: 175.7 ± 1.1 °C
